Activity calls are given as the source filed them. The calls are words filed in the database; no cut-off is given here.
Experiments:
[1] = test system: HEK293; test: Induction of H2S release in HEK293 cells at 100 uM using acetoxymethylated compound incubated for 30 mins followed by UV photoirradiation for 5 mins by fluorescence microscopic analysis; format: functional, cell-based; conditions: Homo sapiens
[2] = Induction of H2S release in phosphate buffer at 100 uM at pH 7.4 followed by UV-irrdiation by methylene-blue assay; format: physicochemical; conditions: pH 7.4, 100 µM, TDE = time-dependent effect
[3] = Induction of H2S release in phosphate buffer at 100 uM at pH 7.4 UV-irrdiated for 300 secs by fluorescence assay relative to control; format: physicochemical; conditions: pH 7.4, 5 min
[4] = Stability of the compound in phosphate buffer at 100 uM at pH 7.4 under dark condition after 1 month by HPLC analysis; format: physicochemical; conditions: pH 7.4, 730.5 h
[5] = test system: HEK293; test: Cytotoxicity against HEK293 cells at 1 to 30 uM using acetoxymethylated compound after 2 days by MTT assay; format: cell-based; conditions: human, hek293, 48 h
[6] = Induction of H2S release in phosphate buffer at 100 uM at pH 7.4 UV-irrdiated for 400 secs by methylene-blue assay; format: physicochemical; conditions: pH 7.4, 0.111111 h
[7] = test system: HEK293; test: Induction of H2S release in HEK293 cells at 100 uM incubated for 30 mins followed by UV photo-irradiation for 5 mins by fluorescence microscopic analysis; format: functional, cell-based; conditions: Homo sapiens

Row | Activity [2] | Activity [3] | Stability [4] | Activity [6] | Structure (SMILES) | Activity [1] | Activity [5] | Activity [7]
1 | tde | Active | Stable |  | CC(CSCC(C)(C(=O)O)c1ccc2oc3ccccc3c(=O)c2c1)(C(=O)O)c1ccc2oc3ccccc3c(=O)c2c1 (configuration not stated) | Active | Non-toxic | 
2 |  |  |  | 15 µM | CC(CSCC(C)(C(=O)O)c1cccc(C(=O)c2ccccc2)c1)(C(=O)O)c1cccc(C(=O)c2ccccc2)c1 (configuration not stated) |  |  | inactive

Source: ChEMBL document CHEMBL3351545, “Development of photo-controllable hydrogen sulfide donor applicable in live cells” (Bioorg Med Chem Lett, 2015)
